Experiments:
Male Sprague Dawley rats [1] = test: Barnes Maze test (momentum exchange impact model); format: in vivo, rat
Description: EXAMPLE. Momentum exchange impact model. This model features several advantageous translational differences over some head injury models, such as the controlled cortical impact injury model. For example, the head, neck and body can move with impact, and the velocity of head movement and energy transfer can be calculated and scaled mild to provide range from moderate to severe concussions. Studies are conducted with moderate impacts with neuroradiological evidence of contusions. Male rats are concussed twice with one day. Additional details are described in Viano et al., “Evaluation of three animal models for concussion and serious brain injury” Ann Biomed Eng. 40(1):213-26 (2012). […] Sham non-concussed test animals are given vehicle or test compound. Test animals are treated twice daily for 5 consecutive days. At two weeks post concussion cognitive behaviors are assessed, using for example, the Barnes maze and/or novel recognition models. In addition, motor behaviors are assessed, using for example, beam walk and/or rotarod tests. In each case, neuroradiological MRI is also performed.
Beginning on postnatal (P)70, animals are divided into 3 groups (n=6-7/group; Sham Control Group (Control, CG), Injury Group (IG), and Treatment Group (TG) and begin their head impact, and drug regimens. All groups are anaesthetized with 4% isoflurane in oxygen, and Injury group and Treatment group receive the first of two total head impacts) using a custom setup from Animal Imaging Research (AIR; Holden, Mass.) on P70. The day after the first impact (P71), test compound, such as AVN576, is administered to the Treatment group and the Sham Control group. In addition, a vehicle only control group (VCG) is administered saline. All administrations re administered to the Control and Treatment groups twice per day at 0700 and 1400 (IP @10 mg/kg). The drug regimen is continued over the following 4 days (5 days total). The second head impact is delivered two days following the first on P72. Two weeks post impact, animals are imaged and tested for cognitive and motor behaviors. In all evaluations made, there was not a significant difference between the sham control group (CG) receiving test compounds and vehicle-only sham control group (VCG) receiving vehicle.
EXAMPLE. Barnes Maze test results. This test assesses spatial learning and memory.

human V1a receptor = target: T1, human V1a receptor (Homo sapiens, UniProt P37288); test: Human vasopressin V1a receptor binding assay; conditions: selectivity table; read-out: inhibition data Ki, V1a
T1 construct: host or cells: CHO cells
Method in brief: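 Whole CHO cells expressing human V1a incubated with 1 nM 3H-AVP and 10-fold compound dilutions in 25 mM Hepes, 0.25% BSA, DMEM pH 7.0 for 45 min at 37 °C. Nonspecific binding with 100 nM unlabelled AVP. Cells SDS-lysed, scintillation counted; IC50 by curve fitting.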

Male Sprague Dawley rats [2] = test: Resting state functional connectivity (fMRI); format: in vivo, rat; conditions: Treatment group
Description: EXAMPLE. Resting state functional connectivity. Resting-state fMRI scan is collected using spin-echo triple-shot EPI sequence (imaging parameters: matrix size=96×96×20, TR/TE=3000/15 msec, voxel size=[…], slice thickness=1 mm. Preprocessing is illustratively accomplished by combining Analysis of Functional NeuroImages (AFNI_17.1.12, http://afni.nimh.nih.gov/afni/), FMRIB Software library (FSL, v5.0.9, http://fsl.fmrib.ox.ac.uk/fsl/), Deformable Registration via Attribute Matching and Mutual-Saliency Weighting (DRAMMS 1.4.1, https://www.cbica.upenn.edu/sbia/software/dramms/index.html) and MATLAB (Mathworks, Natick, Mass.). Brain tissue masks for resting-state functional images are manually drawn using 3DSlicer (https://www.slicer.org/) and applied for skull-stripping. Normalization is completed by registering functional data to the MRI Rat Brain Template (Ekam Solutions LLC, Boston, Mass.) using affine registration through DRAMMS. The region-to-region functional connectivity method is illustratively performed to measure the correlations in spontaneous BOLD fluctuations. A network is comprised of nodes and edges; nodes being the brain region of interest (ROI) and edges being the connections between regions. Nodes are defined using the ROIs segmented from an appropriate MRI RAT Brain Atlas. Illustratively, 171 nodes are defined. Voxel time series data are averaged in each node based on the residual images using the nuisance regression procedure. Pearson's correlation coefficients across all pairs of nodes (14535 pairs for 171 nodes) are computed for each subject among all three groups to assess the interregional temporal correlations. The r-values (ranging from −1 to 1) are z-transformed using the Fisher's Z transform to improve normality. For 171 nodes, 171×171 symmetric connectivity matrices are constructed with each entry representing the strength of edge. Group-level analysis is performed to look at the functional connectivity in controls, one hit and three hit groups. The resulting Z-score matrices from one-group t-tests are clustered using the K-nearest neighbors clustering method to identify how nodes cluster together and form resting state networks. A Z-score threshold of |Z|=2.3 is applied to remove spurious or weak node connections for visualization purposes.
Beginning on postnatal (P)70, animals are divided into 3 groups (n=6-7/group; Sham Control Group (Control, CG), Injury Group (IG), and Treatment Group (TG) and begin their head impact, and drug regimens. All groups are anaesthetized with 4% isoflurane in oxygen, and Injury group and Treatment group receive the first of two total head impacts) using a custom setup from Animal Imaging Research (AIR; Holden, Mass.) on P70. […]

T1 sequence (P37288 whole entry): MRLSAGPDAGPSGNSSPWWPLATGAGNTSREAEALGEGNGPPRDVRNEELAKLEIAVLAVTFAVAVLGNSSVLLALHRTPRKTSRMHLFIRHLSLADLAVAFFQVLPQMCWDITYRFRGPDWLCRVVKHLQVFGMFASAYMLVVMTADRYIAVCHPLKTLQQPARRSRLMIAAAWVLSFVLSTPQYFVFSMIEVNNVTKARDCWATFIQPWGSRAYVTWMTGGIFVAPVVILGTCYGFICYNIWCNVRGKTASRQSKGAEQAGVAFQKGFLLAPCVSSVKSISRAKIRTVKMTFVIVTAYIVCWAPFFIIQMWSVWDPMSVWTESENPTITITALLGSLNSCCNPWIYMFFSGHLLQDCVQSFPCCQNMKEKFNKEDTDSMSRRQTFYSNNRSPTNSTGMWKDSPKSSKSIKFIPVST

C[C@@H](NC(=O)[C@@H](CC(=O)N1CCC(N2CCCCC2)CC1)N1C(=O)[C@@H](N2C(=O)OC[C@@H]2c2ccccc2)[C@H]1/C=C/c1cccc(I)c1)c1ccccc1 [Example 266]
distance traveled before finding the goal box: Injury group relative to Treatment group (Male Sprague Dawley rats [1]; P=0.03): significantly greater distance
error duration (time exploring wrong holes): Injury group relative to Treatment group (Male Sprague Dawley rats [1]; P=0.03): significantly more time exploring the wrong holes
deficits in learning and memory, Barnes maze (Male Sprague Dawley rats [1]; Treatment group, did not differ from control group): did not show any deficits in learning and memory
latency to find the goal box: Injury group relative to Treatment group (Male Sprague Dawley rats [1]; collapsed across acquisition days, P=0.04): longer latencies to find the goal box
Ki (human V1a receptor): 1.1 nM
connectivity of hippocampus, Area M (Male Sprague Dawley rats [2]): hyperconnectivity compared to Injury group and Control group
connectivity of ventral hippocampus, Area G (Male Sprague Dawley rats [2]): hyperconnectivity compared to Injury group and Control group
functional connectivity in network circuitry associated with learning, cognition, memory, and attention (Male Sprague Dawley rats [2]; even compared to Control group): enhanced functional connectivity
resting state functional connectivity network (Male Sprague Dawley rats [2]; 166 brain areas): hyperconnectivity
